Target: T1, human mAChR M1 (Homo sapiens, UniProt P11229)
T1 sequence (P11229 1-460): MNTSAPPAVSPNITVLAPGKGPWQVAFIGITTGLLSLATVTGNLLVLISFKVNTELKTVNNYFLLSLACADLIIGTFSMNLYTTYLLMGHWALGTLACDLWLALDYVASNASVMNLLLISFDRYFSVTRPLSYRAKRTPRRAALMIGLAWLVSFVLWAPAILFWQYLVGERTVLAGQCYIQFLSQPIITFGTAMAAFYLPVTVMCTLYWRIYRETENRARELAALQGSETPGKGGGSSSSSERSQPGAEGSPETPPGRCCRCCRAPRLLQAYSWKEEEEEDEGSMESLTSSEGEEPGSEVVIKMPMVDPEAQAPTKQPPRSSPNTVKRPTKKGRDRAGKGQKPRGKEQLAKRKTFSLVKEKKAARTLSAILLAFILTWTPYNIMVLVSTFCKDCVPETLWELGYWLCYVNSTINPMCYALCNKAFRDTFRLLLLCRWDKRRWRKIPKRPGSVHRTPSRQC
Assay: mAChR M1 cell-based functional assay: calcium mobilization, positive allosteric modulator mode (increase in EC20 acetylcholine response)
Conditions: Table 2, human M1; for EC50: read-out: Human M1 EC50; for Emax: read-out: Human M1 Emax (%)
How it was run: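 PAM potency reflects the concentration-dependent increase in calcium response to an EC20 acetylcholine challenge, given 144 s into a 300 s read after compound addition at 4 s (EC80 follows at 230 s). Cells were hM1-expressing CHO-K1, loaded 50 min with Fluo-4 AM. Curves used 11 points at 1:3 dilutions and four-parameter logistic fitting.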

| SMILES | EC50 | Emax |
| --- | --- | --- |
| Cc1nc(-c2ccc(Cc3cc(C(=O)N[C@H]4CCOC[C@@H]4O)nc4c(C)csc34)cc2)co1 [Compound 330, N-[(3R,4S)-3-hydroxytetrahydropyran-4-yl]-3-methyl-7-[[4-(2-methyloxazol-4-yl)phenyl]methyl]thieno[3,2-b]pyridine-5-carboxamide] | 22.8 nM | 62.8% |
| Cc1nc(-c2ccc(Cc3cc(C(=O)N[C@H]4CCC[C@@H]4O)nc4c(C)csc34)cc2)co1 [Compound 331, N-[(1S,2S)-2-hydroxycyclopentyl]-3-methyl-7-[[4-(2-methyloxazol-4-yl)phenyl]methyl]thieno[3,2-b]pyridine-5-carboxamide] | 368 nM | 69.7% |
| O=C(NC1CCOCC1)c1cc(C(F)c2ccc(-c3cscn3)cc2)c2sccc2n1 (stereo not drawn) [Compound 332, 7-[fluoro-(4-thiazol-4-ylphenyl)methyl]-N-tetrahydropyran-4-yl-thieno[3,2-b]pyridine-5-carboxamide] | 56.9 nM | 69% |
| O=C(NC1CC2(COC2)C1)c1cc(Cc2ccc(-c3nccs3)cc2)c2sccc2n1 [Compound 333] | 446 nM | 84.7% |
| Cn1cc(-c2ccc(Cc3cc(C(=O)NCC4CCOCC4)nc4ccsc34)cn2)cn1 [Compound 334, 7-[[6-(1-methylpyrazol-4-yl)-3-pyridyl]methyl]-N-(tetrahydropyran-4-ylmethyl)thieno[3,2-b]pyridine-5-carboxamide] | 103 nM | 83% |
| CC1CC(NC(=O)c2cc(Cc3ccc(-c4cnn(C)c4)nc3)c3sccc3n2)CC(C)O1 (stereo not drawn) [Compound 335, N-(2,6-dimethyltetrahydropyran-4-yl)-7-[[6-(1-methylpyrazol-4-yl)-3-pyridyl]methyl]thieno[3,2-b]pyridine-5-carboxamide] | 158 nM | 83.6% |
| Cn1cc(-c2ccc(Cc3cc(C(=O)NC4CCOC(C)(C)C4)nc4ccsc34)cn2)cn1 (stereo not drawn) [Compound 336, N-(2,2-dimethyltetrahydropyran-4-yl)-7-[[6-(1-methylpyrazol-4-yl)-3-pyridyl]methyl]thieno[3,2-b]pyridine-5-carboxamide] | 64.3 nM | 58.4% |
| CC1(C)CC(NC(=O)c2cc(Cc3ccc(-c4nccs4)cc3)c3sccc3n2)CCO1 (stereo not drawn) [Compound 337] | 852 nM | 84.2% |
| Cn1cc(-c2ccc(Cc3cc(C(=O)NCC4CCO4)nc4ccsc34)cn2)cn1 (stereo not drawn) [Compound 338, 7-[[6-(1-methylpyrazol-4-yl)-3-pyridyl]methyl]-N-(oxetan-2-ylmethyl)thieno[3,2-b]pyridine-5-carboxamide] | 84.9 nM | 93.3% |
| Cn1cc(-c2ccc(Cc3cc(C(=O)NC[C@H]4CCCO4)nc4ccsc34)cn2)cn1 [Compound 339, 7-[[6-(1-methylpyrazol-4-yl)-3-pyridyl]methyl]-N-[[(2R)-tetrahydrofuran-2-yl]methyl]thieno[3,2-b]pyridine-5-carboxamide] | 131 nM | 87.4% |
| Cn1cc(-c2ccc(Cc3cc(C(=O)NCC4CCCCO4)nc4ccsc34)cn2)cn1 (stereo not drawn) [Compound 340, 7-[[6-(1-methylpyrazol-4-yl)-3-pyridyl]methyl]-N-(tetrahydropyran-2-ylmethyl)thieno[3,2-b]pyridine-5-carboxamide] | 225 nM | 88.3% |
| Cn1cc(-c2ccc(Cc3cc(C(=O)NC4COC4)nc4ccsc34)cn2)cn1 [Compound 341, 7-[[6-(1-methylpyrazol-4-yl)-3-pyridyl]methyl]-N-(oxetan-3-yl)thieno[3,2-b]pyridine-5-carboxamide] | 1690 nM | 78.8% |
| COCCNC(=O)c1cc(Cc2ccc(-c3cnn(C)c3)nc2)c2sccc2n1 [Compound 342, N-(2-methoxyethyl)-7-[[6-(1-methylpyrazol-4-yl)-3-pyridyl]methyl]thieno[3,2-b]pyridine-5-carboxamide] | 289 nM | 89.5% |
| Cn1cc(-c2ccc(Cc3cc(C(=O)N[C@H]4CCOC4)nc4ccsc34)cn2)cn1 [Compound 343, 7-[[6-(1-methylpyrazol-4-yl)-3-pyridyl]methyl]-N-[(3S)-tetrahydrofuran-3-yl]thieno[3,2-b]pyridine-5-carboxamide] | 975 nM | 80.8% |
| Cn1cc(-c2ccc(Cc3cc(C(=O)N[C@@H]4CCOC4)nc4ccsc34)cn2)cn1 [Compound 344, 7-[[6-(1-methylpyrazol-4-yl)-3-pyridyl]methyl]-N-[(3R)-tetrahydrofuran-3-yl]thieno[3,2-b]pyridine-5-carboxamide] | 798 nM | 85.5% |
| Cn1cc(-c2ccc(Cc3cc(C(=O)NC4CC(F)(F)C4)nc4ccsc34)cn2)cn1 [Compound 345, N-(3,3-difluorocyclobutyl)-7-[[6-(1-methylpyrazol-4-yl)-3-pyridyl]methyl]thieno[3,2-b]pyridine-5-carboxamide] | 203 nM | 74.5% |
| Cn1cc(-c2ccc(Cc3cc(C(=O)NC4CC(F)C4)nc4ccsc34)cn2)cn1 (stereo not drawn) [Compound 346, N-(3-fluorocyclobutyl)-7-[[6-(1-methylpyrazol-4-yl)-3-pyridyl]methyl]thieno[3,2-b]pyridine-5-carboxamide] | 266 nM | 89.4% |
| Cn1cc(-c2ccc(Cc3cc(C(=O)N[C@H]4CCCOC4)nc4ccsc34)cn2)cn1 [Compound 347, 7-[[6-(1-methylpyrazol-4-yl)-3-pyridyl]methyl]-N-[(3S)-tetrahydropyran-3-yl]thieno[3,2-b]pyridine-5-carboxamide] | 499 nM | 82.2% |
| Cn1cc(-c2ccc(Cc3cc(C(=O)NCC4CCOC4)nc4ccsc34)cn2)cn1 (stereo not drawn) [Compound 348, 7-[[6-(1-methylpyrazol-4-yl)-3-pyridyl]methyl]-N-(tetrahydrofuran-3-ylmethyl)thieno[3,2-b]pyridine-5-carboxamide] | 128 nM | 85.6% |
| Cn1cc(-c2ccc(Cc3cc(C(=O)NC[C@@H]4CCCO4)nc4ccsc34)cn2)cn1 [Compound 349, 7-[[6-(1-methylpyrazol-4-yl)-3-pyridyl]methyl]-N-[[(2S)-tetrahydrofuran-2-yl]methyl]thieno[3,2-b]pyridine-5-carboxamide] | 25.4 nM | 89.8% |
| Cn1ccc(-c2ccc(Cc3cc(C(=O)NC4CCOCC4)nc4ccsc34)cn2)n1 [Compound 350, 7-[[6-(1-methylpyrazol-3-yl)-3-pyridyl]methyl]-N-tetrahydropyran-4-yl-thieno[3,2-b]pyridine-5-carboxamide] | 80.5 nM | 70.5% |
| Cn1ccc(-c2ccc(Cc3cc(C(=O)NC4CC5(COC5)C4)nc4ccsc34)cn2)n1 [Compound 351, 7-[[6-(1-methylpyrazol-3-yl)-3-pyridyl]methyl]-N-(2-oxaspiro[3.3]heptan-6-yl)thieno[3,2-b]pyridine-5-carboxamide] | 143 nM | 89.9% |
| Cn1ccc(-c2ccc(Cc3cc(C(=O)N[C@H]4CCC[C@@H]4O)nc4ccsc34)cn2)n1 [Compound 352, N-[(1S,2S)-2-hydroxycyclopentyl]-7-[[6-(1-methylpyrazol-3-yl)-3-pyridyl]methyl]thieno[3,2-b]pyridine-5-carboxamide] | 32.7 nM | 90.7% |
| Cn1ccc(-c2ccc(Cc3cc(C(=O)N[C@H]4CCOC[C@@H]4O)nc4ccsc34)cn2)n1 [Compound 353, N-[(3R,4S)-3-hydroxytetrahydropyran-4-yl]-7-[[6-(1-methylpyrazol-3-yl)-3-pyridyl]methyl]thieno[3,2-b]pyridine-5-carboxamide] | 5.05 nM | 62.1% |
| Cn1ccc(-c2ccc(Cc3cc(C(=O)N[C@H]4CCCC[C@@H]4O)nc4ccsc34)cn2)n1 [Compound 354, N-[(1S,2S)-2-hydroxycyclohexyl]-7-[[6-(1-methylpyrazol-3-yl)-3-pyridyl]methyl]thieno[3,2-b]pyridine-5-carboxamide] | 14.8 nM | 64.2% |
| Cn1ccc(-c2ccc(Cc3cc(C(=O)NCC4CCO4)nc4ccsc34)cn2)n1 (stereo not drawn) [Compound 355, 7-[[6-(1-methylpyrazol-3-yl)-3-pyridyl]methyl]-N-(oxetan-2-ylmethyl)thieno[3,2-b]pyridine-5-carboxamide] | 355 nM | 86.6% |
| Cn1ccc(-c2ccc(Cc3cc(C(=O)NCC4CCOC4)nc4ccsc34)cn2)n1 (stereo not drawn) [Compound 356, 7-[[6-(1-methylpyrazol-3-yl)-3-pyridyl]methyl]-N-(tetrahydrofuran-3-ylmethyl)thieno[3,2-b]pyridine-5-carboxamide] | 390 nM | 84.8% |
| Cn1ccc(-c2ccc(Cc3cc(C(=O)NC[C@@H]4CCOC4)nc4ccsc34)cn2)n1 [Compound 357] | 458 nM | 86.5% |
| Cn1ccc(-c2ccc(Cc3cc(C(=O)NCC4CCOCC4)nc4ccsc34)cn2)n1 [Compound 358, 7-[[6-(1-methylpyrazol-3-yl)-3-pyridyl]methyl]-N-(tetrahydropyran-4-ylmethyl)thieno[3,2-b]pyridine-5-carboxamide] | 201 nM | 84.3% |
| Cn1ccc(-c2ccc(Cc3cc(C(=O)NCC4CCCCO4)nc4ccsc34)cn2)n1 (stereo not drawn) [Compound 359, 7-[[6-(1-methylpyrazol-3-yl)-3-pyridyl]methyl]-N-(tetrahydropyran-2-ylmethyl)thieno[3,2-b]pyridine-5-carboxamide] | 573 nM | 83.4% |

Reference: patent US11111251B2, “Positive allosteric modulators of the muscarinic acetylcholine receptor M1” (Vanderbilt University, priority 2016, dated 2021)
